Data from patent US11173150B2, “Method for diagnosing, preventing, and treating neurological diseases” (United States Government As Represented By The Department …, priority 2010, dated 2021).
≈ marks a conversion by molar mass, not a printed value.

Legend:
Desulfovibrio = experiment: Antimicrobial susceptibility testing, CLSI serial two-fold plate dilution; type: cell-based; conditions: for MIC: Desulfovibrio
[1] = Open-label trial of oral vancomycin in children with regressive onset autism; type: in vivo, human
From the text: To explore whether our index case's improvement represented a true therapeutic effect, institutional human investigation committee approval was obtained for an open-label trial in a narrowly defined subgroup of autistic children. Eleven children (10 males, 1 female; age range: 43-84 months) were enrolled. Inclusion criteria for the study were derived from our central hypothesis and index case characteristics. They include 1) Meets diagnostic criteria for Autistic Disorder (DSM IV 299.00); 2) Other genetic and medical diagnoses have been adequately evaluated and ruled out; 3) Definable, rapid onset after 12 months of age; 4) Antecedent antimicrobial use (<2 months of autism symptom onset); 5) Persistent loose stool history, with diarrhea onset before autism symptoms; 6) Symptoms for <4 years; 7) Child is 2-8 years of age; 8) No evidence of any significant medical problem that might complicate treatment such as renal, cardiac or pulmonary disease, severe enterocolitis (visible blood or pus in the stool), or chronic infection (e.g., tuberculosis); and 9) Clinically static for 3 months (no new neuroleptic, seizure, or other medications), with no elective changes during the study, and 10) No antimicrobial use for at least 2 months prior to entry into the study. All children had diarrhea and regressive onset of autistic features (occurring at a mean of 17.7±3.4 months) as previously defined in the literature.
The Developmental Profile II provided descriptive developmental levels to contrast with developmental age. […] The Childhood Autism Rating Scale (CARS) was also administered. The CARS is a 15-item behavioral rating scale developed to identify children with autism, and to distinguish them from developmentally handicapped children without the autism syndrome. Based upon CARS diagnostic categories, six children met the criteria for severe autism, two for moderate autism, and three for mild autism. The vancomycin dose was 500 mg/day given orally as a liquid (500 mg/6 ml), divided into 2 ml TID for eight weeks. This was followed by four weeks of oral treatment with a probiotic mixture of Lactobacillus acidophilus, L. bulgaricus, and Bifidobacterium bifidum (40×10^9 cfu/ml).
Two measures of potential improvement were examined: I) Children were videotaped for 30 minutes at baseline and once during therapy in a playroom environment. At each session, the child was directed to play with a series of puzzles, books, blocks, and dolls by the mother and then by the evaluator. At the end of the trial, a clinical child psychologist (who was provided with a brief explanation of our working hypothesis) compared coded, paired videotapes of 10 of the 11 children studied (video was not available for one child). The psychologist viewed each pair of tapes and scored them. […] 2) Behavior and communication analog rating scales were completed by the study physician at baseline, during therapy, and at follow-up in a manner similar to previously validated methods for other disease states. Results are presented as median scores to account for potential non-linear score increment.

[2] = Index case: 12 week therapeutic trial of oral vancomycin; type: in vivo, human; conditions: 125 mg QID oral, 12 weeks; person
Method: […] Diarrhea began after three 10 day courses of broad spectrum antimicrobials prescribed over a six week period for “chronic otitis media.” There was no blood or pus in the stool nor associated constitutional symptoms. There was profound behavioral and developmental deterioration, along with emergence of severe autistic features.
A 12 week therapeutic trial of oral vancomycin (125 mg QID) was begun with expanded observations by a pediatric neuropsychologist pre- and post-treatment. At baseline, the child was not on a special diet nor was […] taking any vitamin supplements. Three days after initiation of the vancomycin therapy, a hyperactivity pattern emerged which lasted for four days. […] became affectionate and relatively calm. […] promptly achieved toilet training and increased vocabulary. Follow-up behavioral observations after eight weeks of therapy noted an increase in on-task performance, compliance with parental requests, awareness of environmental surroundings, and persistence when engaging in positive activities. A significant reduction in repetitive and self-stimulatory behaviors was also noted. The child's educational therapies remained unchanged for both six months before and during the vancomycin trial. Shortly after vancomycin discontinuation, behavioral deterioration was observed. Though still improved over baseline, […] eventually lost most of the initial gains.

[3] = oral administration; cited from earlier work

Work on CN[C@H](CC(C)C)C(=O)N[C@H]1C(=O)N[C@@H](CC(N)=O)C(=O)N[C@H]2C(=O)N[C@H]3C(=O)N[C@H](C(=O)N[C@H](C(=O)O)c4cc(O)cc(O)c4-c4cc3ccc4O)[C@H](O)c3ccc(c(Cl)c3)Oc3cc2cc(c3O[C@@H]2O[C@H](CO)[C@@H](O)[C@H](O)[C@H]2O[C@H]2C[C@](C)(N)[C@H](O)[C@H](C)O2)Oc2ccc(cc2Cl)[C@H]1O [Vancomycin] yielded an MIC (Desulfovibrio; Desulfovibrio strain 4019) of over 512 µg/mL, an MIC (Desulfovibrio; Desulfovibrio strain 8236) of 256 µg/mL (≈ 177 µM) and an MIC (Desulfovibrio; Desulfovibrio strain 8381) of over 512 µg/mL. It also gave an MIC (Desulfovibrio; Desulfovibrio strain 8907) of over 512 µg/mL, an MIC (Desulfovibrio; Desulfovibrio strain 8933) of over 512 µg/mL and an MIC (Desulfovibrio; Desulfovibrio strain 8951) of over 512 µg/mL. It also gave an MIC (Desulfovibrio; Desulfovibrio strain 9070) of over 512 µg/mL, an MIC (Desulfovibrio; Desulfovibrio strain 9120) of over 512 µg/mL and an MIC (Desulfovibrio; Desulfovibrio strain 9706) of over 512 µg/mL. For the same compound, the MIC (Desulfovibrio; Desulfovibrio strain 9976) was 512 µg/mL (≈ 353 µM), the MIC (Desulfovibrio; Desulfovibrio strain 10831) was 256 µg/mL (≈ 177 µM) and the MIC (Desulfovibrio; Desulfovibrio strain 11081) was 256 µg/mL (≈ 177 µM). It also gave an MIC (Desulfovibrio; Desulfovibrio strain 11094) of over 512 µg/mL, an MIC (Desulfovibrio; Desulfovibrio strain 11232) of over 512 µg/mL and an MIC (Desulfovibrio; Desulfovibrio strain 11346) of over 512 µg/mL. It also gave an MIC (Desulfovibrio; Desulfovibrio strain 11378) of 256 µg/mL (≈ 177 µM), an MIC (Desulfovibrio; Desulfovibrio strain 11437) of over 512 µg/mL and an MIC (Desulfovibrio; Desulfovibrio strain 11568) of over 512 µg/mL. The MIC (Desulfovibrio; Desulfovibrio strain 11623) was over 512 µg/mL, the MIC (Desulfovibrio; Desulfovibrio strain 11717) was over 512 µg/mL and the MIC (Desulfovibrio; Desulfovibrio strain 11789) was over 512 µg/mL. For the same compound, the MIC (Desulfovibrio; Desulfovibrio strain 11830) was over 512 µg/mL, the MIC (Desulfovibrio; Desulfovibrio strain 11949) was over 512 µg/mL and the MIC (Desulfovibrio; Desulfovibrio strain 12379) was 256 µg/mL (≈ 177 µM). The MIC (Desulfovibrio; Desulfovibrio strain 13966) was over 512 µg/mL, the MIC (Desulfovibrio; Desulfovibrio type strain 7757^T) was over 512 µg/mL and the MIC (Desulfovibrio; Desulfovibrio type strain 29098^T) was 1 µg/mL (≈ 0.69 µM). The “MIC against Desulfovibrio, summary in words” value (Desulfovibrio; discussion of Table 14) was “not very active on a weight basis”, the “Blinded assessment of coded, paired videotapes: children with improvement during therapy” value ([1]; 500 mg/day orally for eight weeks, no change in one, possible deterioration in one) was “eight of ten” and the “Time to substantial behavioral deterioration after discontinuance” value ([1]; reported by most parents, telephone follow-up) was “two”. The “Analog ratings at long-term follow-up” value ([1]; two to eight months after discontinuance, in all but one child) was “returned towards baseline”, the “Analog rating scale, communication” value ([1]; unblinded, group as a whole, Wilcoxon Signed Ranks Z=2.9 p=0.003) was “improvement” and the “Analog rating scale, behavior” value ([1]; unblinded, group as a whole, Wilcoxon Signed Ranks Z=-2.9, p=0.003) was “improvement”. For the same compound, the “Children with brief (1-4 days) period of hyperactivity” value ([1]; within three days of initiating antibiotic treatment, eleven children enrolled) was “six”, the “Clinical outcome of index case” value [2] was “rapid and dramatic clinical improvement” and the “Fecal levels after oral administration” value [3] was 2-5,000 mcg/gm.
